Values joined by “and” are separate entries in the source; they are usually repeats but may differ in a detail not shown here. Equal values may be shown once. Toxic doses and inconclusive results are not listed. The calls were made as follows: active = survival T/C of 150% or more; inactive = T/C below 125% in these data.
System: CD2F1 mice, L1210 leukemia ip, survival T/C
Experiment: NCI In Vivo Anticancer Drug Screen. Data for tumor model L1210 Leukemia (intraperitoneal) in CD2F1 (CDF1) mice
Conditions: higher = longer survival
Procedure, shortened: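 Ratio T/C, where T is the treated-group value and C the vehicle-dosed control value, from mice implanted with a transplantable tumor.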

[1] = endpoint: mean survival time, dose: 25.0 mg/kg/injection, schedule: Q04DX003 (ip), vehicle: Klucel (hydroxypropylcellulose) (HPC)
[2] = endpoint: mean survival time, dose: 50.0 mg/kg/injection, schedule: Q04DX003 (ip), vehicle: Klucel (hydroxypropylcellulose) (HPC)
[3] = endpoint: median survival time, dose: 3.12 mg/kg/injection, schedule: Q04DX003 (ip), vehicle: saline
[4] = endpoint: median survival time, dose: 6.25 mg/kg/injection, schedule: Q04DX003 (ip), vehicle: saline
[5] = endpoint: median survival time, dose: 12.5 mg/kg/injection, schedule: Q04DX003 (ip), vehicle: saline
[6] = endpoint: median survival time, dose: 25.0 mg/kg/injection, schedule: Q04DX003 (ip), vehicle: saline
[7] = endpoint: median survival time, dose: 50.0 mg/kg/injection, schedule: Q04DX003 (ip), vehicle: saline
[8] = endpoint: median survival time, dose: 100.0 mg/kg/injection, schedule: Q04DX003 (ip), vehicle: saline
[9] = endpoint: median survival time, dose: 200.0 mg/kg/injection, schedule: Q04DX003 (ip), vehicle: saline
[10] = endpoint: mean survival time, dose: 100.0 mg/kg/injection, schedule: Q01DX001 (ip), vehicle: saline with Tween-80
[11] = endpoint: mean survival time, dose: 100.0 mg/kg/injection, schedule: Q04DX003 (ip), vehicle: saline with Tween-80
[12] = endpoint: mean survival time, dose: 200.0 mg/kg/injection, schedule: Q01DX001 (ip), vehicle: saline with Tween-80
[13] = endpoint: mean survival time, dose: 200.0 mg/kg/injection, schedule: Q04DX003 (ip), vehicle: saline with Tween-80
[14] = endpoint: mean survival time, dose: 400.0 mg/kg/injection, schedule: Q01DX001 (ip), vehicle: saline with Tween-80
[15] = endpoint: mean survival time, dose: 400.0 mg/kg/injection, schedule: Q04DX003 (ip), vehicle: saline with Tween-80
[16] = endpoint: mean survival time, dose: 100.0 mg/kg/injection, schedule: Q01DX009 (ip), vehicle: saline with Tween-80
[17] = endpoint: mean survival time, dose: 100.0 mg/kg/injection, schedule: Q04DX002 (ip), vehicle: saline with Tween-80
[18] = endpoint: mean survival time, dose: 200.0 mg/kg/injection, schedule: Q04DX002 (ip), vehicle: saline with Tween-80
[19] = endpoint: mean survival time, dose: 400.0 mg/kg/injection, schedule: Q04DX002 (ip), vehicle: saline with Tween-80
[20] = endpoint: mean survival time, dose: 200.0 mg/kg/injection, schedule: Q01DX009 (ip), vehicle: saline with Tween-80
[21] = endpoint: mean survival time, dose: 100.0 mg/kg/injection, schedule: Q01DX001 (ip), vehicle: saline
[22] = endpoint: mean survival time, dose: 400.0 mg/kg/injection, schedule: Q01DX009 (ip), vehicle: saline with Tween-80
[23] = endpoint: mean survival time, dose: 100.0 mg/kg/injection, schedule: Q01DX005 (ip), vehicle: water
[24] = endpoint: mean survival time, dose: 200.0 mg/kg/injection, schedule: Q01DX005 (ip), vehicle: water
[25] = endpoint: mean survival time, dose: 400.0 mg/kg/injection, schedule: Q01DX005 (ip), vehicle: water

Measured: T/C

CN(C)/N=C\c1ccc([N+](C)(C)C)cc1
inactive: endpoint: mean survival time, dose: 12.5 mg/kg/injection, schedule: Q04DX003 (ip), vehicle: Klucel (hydroxypropylcellulose) (HPC) 103 % of control | [1] 109 % of control | [2] 106 % of control

NC(=N\O)/C(N)=N/O.[Cl][Pd][Cl]
inactive: [3] 100 % of control | [4] 100 % of control | [5] 103 % of control | [6] 100 % of control | [7] 97 % of control | [8] 98 % of control | [9] 97 % of control

Cc1ccc(-c2nn[nH]n2)cc1[N+](=O)[O-]
inactive: [10] 109 % of control | [11] 95 % of control | [12] 86 % of control | [13] 97 % of control | [14] 89 % of control | [15] 95 % of control

O=C(CC(O)(C(F)(F)F)C(F)(F)F)c1ccc(Cl)c2ccccc12
inactive: endpoint: mean survival time, dose: 100.0 mg/kg/injection, schedule: Q01DX001 (ip), vehicle: other 102 % of control | endpoint: mean survival time, dose: 200.0 mg/kg/injection, schedule: Q01DX001 (ip), vehicle: other 100 % of control | endpoint: mean survival time, dose: 400.0 mg/kg/injection, schedule: Q01DX001 (ip), vehicle: other 96 % of control

O=C1C(=O)c2ccccc2C(O)=C1C(C1=C(O)c2ccccc2C(=O)C1=O)c1ccccc1Br
inactive: endpoint: mean survival time, dose: 100.0 mg/kg/injection, schedule: Q01DX001 (ip), vehicle: saline sonified 98 % of control | [16] 86 % of control | endpoint: mean survival time, dose: 200.0 mg/kg/injection, schedule: Q01DX001 (ip), vehicle: saline sonified 102 % of control | endpoint: mean survival time, dose: 400.0 mg/kg/injection, schedule: Q01DX001 (ip), vehicle: saline sonified 91 % of control

O=C(O)/C=C/C=C/C(=O)O
inactive: [10] 102 % of control and 101 % of control | [12] 104 % of control and 93 % of control | [14] 100 % of control and 101 % of control

[Cl][Pt+2][Cl].[NH-]C(C(=O)OCc1ccccc1)c1ccccc1.[NH-]C(C(=O)OCc1ccccc1)c1ccccc1 (stereo unspecified)
inactive: [3] 103 % of control | [4] 109 % of control | [5] 98 % of control | [6] 101 % of control | [7] 109 % of control | [8] 109 % of control | [9] 111 % of control

COc1cc(CCCCl)cc(OC)c1OC
inactive: [17] 100 % of control | [18] 100 % of control | [19] 103 % of control

O=C1C2=C(CCCC2)CN1c1ccccc1
inactive: endpoint: mean survival time, dose: 50.0 mg/kg/injection, schedule: Q01DX009 (ip), vehicle: saline with Tween-80 98 % of control | [16] 98 % of control | [20] 107 % of control

N#Cc1ncc(-c2ccccc2)nc1C#N
inactive: [10] 91 % of control | [12] 92 % of control | [14] 105 % of control

Ic1cccs1
inactive: [21] 95 % of control

CCOC(=O)C(O)c1ccccc1 (stereo unspecified)
inactive: [16] 101 % of control | [20] 96 % of control | [22] 93 % of control

NC(CS/C=C\C(=O)O)C(=O)O (stereo unspecified)
inactive: [11] 101 % of control | [15] 93 % of control

COc1ccc2c(c1O)CNCC2O (stereo unspecified)
inactive: [21] 102 % of control | endpoint: mean survival time, dose: 200.0 mg/kg/injection, schedule: Q01DX001 (ip), vehicle: saline 101 % of control | endpoint: mean survival time, dose: 400.0 mg/kg/injection, schedule: Q01DX001 (ip), vehicle: saline 101 % of control

Cc1ccc(S(=O)(=O)Nc2ccccc2)c(C(O)(c2ccccc2)c2ccccc2)c1
inactive: [11] 95 % of control | [13] 106 % of control | [15] 95 % of control

O=C1COC(=O)N1
inactive: [11] 107 % of control | [13] 94 % of control | [15] 96 % of control

CN(C)c1ccn(C2OC(CO)C(O)C2O)c(=O)n1 (stereo unspecified)
inactive: [23] 107 % of control | [24] 103 % of control | [25] 115 % of control

CCOC(=O)C12CCCCC1C/C(=N/NC(N)=O)CC2 (stereo unspecified)
inactive: endpoint: mean survival time, dose: 50.0 mg/kg/injection, schedule: Q04DX003 (ip), vehicle: saline with Tween-80 96 % of control | endpoint: mean survival time, dose: 100.0 mg/kg/injection, schedule: Q01DX001 (ip), vehicle: acetone 92 % of control | endpoint: mean survival time, dose: 100.0 mg/kg/injection, schedule: Q04DX003 (ip), vehicle: acetone 96 % of control | [11] 96 % of control | endpoint: mean survival time, dose: 200.0 mg/kg/injection, schedule: Q01DX001 (ip), vehicle: acetone 94 % of control | [12] 88 % of control | endpoint: mean survival time, dose: 200.0 mg/kg/injection, schedule: Q04DX003 (ip), vehicle: acetone 90 % of control | endpoint: mean survival time, dose: 400.0 mg/kg/injection, schedule: Q01DX001 (ip), vehicle: acetone 97 % of control | endpoint: mean survival time, dose: 400.0 mg/kg/injection, schedule: Q04DX003 (ip), vehicle: acetone 90 % of control

O=C(O)C(O)C(O)C1[O][Sb][O]C1C(=O)O (stereo unspecified)
inactive: endpoint: median survival time, dose: 6.25 mg/kg/injection, schedule: Q01DX009 (ip), vehicle: saline 93 % of control | endpoint: median survival time, dose: 12.5 mg/kg/injection, schedule: Q01DX009 (ip), vehicle: saline 102 % of control | endpoint: median survival time, dose: 25.0 mg/kg/injection, schedule: Q01DX009 (ip), vehicle: saline 95 % of control | endpoint: median survival time, dose: 50.0 mg/kg/injection, schedule: Q01DX009 (ip), vehicle: saline 98 % of control

c1coc(NC2CCCCC2)n1
inactive: [10] 102 % of control | [12] 102 % of control | [14] 102 % of control

Br/C(C=Nc1ccccc1)=C\Nc1ccccc1
inactive: [16] 102 % of control | [11] 101 % of control | [20] 86 % of control | [13] 108 % of control | [22] 86 % of control | [15] 108 % of control

NC(=O)C(CO)NC(=O)OCc1ccccc1 (stereo unspecified)
inactive: endpoint: mean survival time, dose: 25.0 mg/kg/injection, schedule: Q01DX005 (ip), vehicle: water 103 % of control | endpoint: mean survival time, dose: 50.0 mg/kg/injection, schedule: Q01DX005 (ip), vehicle: water 104 % of control | [23] 95 % of control | [24] 97 % of control | [25] 93 % of control

CC1OC(OC2C(OC3CCC4(C)C(CCC5(C)C4CC=C4C6CC(C)(C)CCC6(CO)C(O)CC45C)C3(C)C)OC(CO)C(OC3OC(COC4OC(CO)C(O)C(O)C4O)C(O)C(O)C3O)C2O)C(O)C(O)C1O (stereo unspecified)
inactive: endpoint: mean survival time, dose: 50.0 mg/kg/injection, schedule: Q01DX001 (sc), vehicle: steriod suspending solution 103 % of control

CCOC(=O)c1cc(=O)c2cc(S(=O)(=O)F)ccc2[nH]1
inactive: endpoint: mean survival time, dose: 100.0 mg/kg/injection, schedule: Q04DX003 (ip), vehicle: Klucel (hydroxypropylcellulose) (HPC) 103 % of control | endpoint: mean survival time, dose: 200.0 mg/kg/injection, schedule: Q04DX003 (ip), vehicle: Klucel (hydroxypropylcellulose) (HPC) 103 % of control | endpoint: mean survival time, dose: 400.0 mg/kg/injection, schedule: Q04DX003 (ip), vehicle: Klucel (hydroxypropylcellulose) (HPC) 100 % of control

Cn1cc(C2NC(=O)c3ccccc3N2)c2ccccc21 (stereo unspecified)
inactive: endpoint: median survival time, dose: 100.0 mg/kg/injection, schedule: Q01DX009 (ip), vehicle: Klucel (hydroxypropylcellulose) (HPC) 119 % of control

CC1(c2ccccc2)C(C#N)C(=O)NC(=O)C1C#N (stereo unspecified)
inactive: [16] 94 % of control | [11] 102 % of control | [20] 93 % of control | [13] 91 % of control | [15] 91 % of control

CC(=N\O)/C(C)=N/O.CC(=N\O)/C(C)=N/O.O.[CH3-].[Co]
inactive: [1] 95 % of control | [2] 95 % of control

COc1nc(NC2OC(CO)C(O)C(O)C2O)c(I)c(=O)[nH]1 (stereo unspecified)
inactive: endpoint: median survival time, dose: 12.5 mg/kg/injection, schedule: Q01DX005 (ip), vehicle: saline 109 % of control | endpoint: median survival time, dose: 25.0 mg/kg/injection, schedule: Q01DX005 (ip), vehicle: saline 107 % of control | endpoint: median survival time, dose: 50.0 mg/kg/injection, schedule: Q01DX005 (ip), vehicle: saline 100 % of control | endpoint: median survival time, dose: 100.0 mg/kg/injection, schedule: Q01DX005 (ip), vehicle: saline 101 % of control | endpoint: median survival time, dose: 200.0 mg/kg/injection, schedule: Q01DX005 (ip), vehicle: saline 100 % of control

Cc1cc(C)c(C(=O)CN2CCOCC2)c(C)c1
inactive: [11] 98 % of control | [13] 101 % of control | [15] 95 % of control

CC1C(=O)OC2C1CCC1(C)C=CC(=O)C3(C)OC213 (stereo unspecified)
inactive: [17] 108 % of control and 104 % of control | [18] 108 % of control and 124 % of control | [19] 120 % of control

O.O.O=C(O)CC(=O)O.[NH-]C1CCCCC1[NH-].[Pt+2] (stereo unspecified)
inactive: endpoint: mean survival time, dose: 12.5 mg/kg/injection, schedule: Q04DX003 (ip), vehicle: dextrose 98 % of control
